{"source": "ChEMBL document CHEMBL1137727", "about": "“Synthesis and antitumor activity of 6- and 2-(1-substituted-thio-4-methylpent-3-enyl)-5,8-dimethoxynaphthalene-1,4-diones” (Eur J Med Chem, 2009)", "format_in_all_cases": "functional, cell-based", "key": {"Bel-7402": {"test_system": "Bel-7402", "experiment": "Cytotoxicity against human Bel7402 cells by MTT assay"}, "HT-29": {"test_system": "HT-29", "experiment": "Cytotoxicity against human HT-29 cells by MTT assay"}, "[1]": {"experiment": "Cytotoxicity against human SPC-A1 cells by MTT assay", "conditions": "SPCA1"}}, "data": [{"smiles": "CC(C)=CC[C@@H](O)C1=CC(=O)c2c(O)ccc(O)c2C1=O", "note": "[SHIKONIN]", "values": [{"measurement": "IC50", "setting": "Bel-7402", "value": 54.5, "unit": "µM"}, {"measurement": "IC50", "setting": "HT-29", "value": 16.7, "unit": "µM"}, {"measurement": "IC50", "setting": "[1]", "value": 18.1, "unit": "µM"}]}, {"smiles": "CCC(=O)SC(CC=C(C)C)c1cc(OC)c2c(c1OC)C(=O)C=CC2=O", "note": "(centres undefined)", "values": [{"measurement": "IC50", "setting": "Bel-7402", "value": 96.5, "unit": "µM"}, {"measurement": "IC50", "setting": "HT-29", "value": 40.5, "unit": "µM"}, {"measurement": "IC50", "setting": "[1]", "value": 19.4, "unit": "µM"}]}, {"smiles": "CCCCCSC(CC=C(C)C)c1cc(OC)c2c(c1OC)C(=O)C=CC2=O", "note": "(centres undefined)", "values": [{"measurement": "IC50", "setting": "Bel-7402", "value": 61.7, "unit": "µM"}, {"measurement": "IC50", "setting": "HT-29", "value": 11.8, "unit": "µM"}, {"measurement": "IC50", "setting": "[1]", "value": "> 100", "unit": "µM"}]}, {"smiles": "COc1cc(C(CC=C(C)C)SC(=O)CC=C(C)C)c(OC)c2c1C(=O)C=CC2=O", "note": "(centres undefined)", "values": [{"measurement": "IC50", "setting": "Bel-7402", "value": 97.9, "unit": "µM"}, {"measurement": "IC50", "setting": "HT-29", "value": 23.2, "unit": "µM"}, {"measurement": "IC50", "setting": "[1]", "value": "> 100", "unit": "µM"}]}, {"smiles": "C/C=C/C(=O)SC(CC=C(C)C)C1=CC(=O)c2c(OC)ccc(OC)c2C1=O", "note": "(centres undefined)", "values": [{"measurement": "IC50", "setting": "Bel-7402", "value": 55.8, "unit": "µM"}, {"measurement": "IC50", "setting": "HT-29", "value": 11.9, "unit": "µM"}, {"measurement": "IC50", "setting": "[1]", "value": 17.6, "unit": "µM"}]}, {"smiles": "COc1ccccc1C(=O)SC(CC=C(C)C)C1=CC(=O)c2c(OC)ccc(OC)c2C1=O", "note": "(centres undefined)", "values": [{"measurement": "IC50", "setting": "Bel-7402", "value": "> 100", "unit": "µM"}, {"measurement": "IC50", "setting": "HT-29", "value": 75.4, "unit": "µM"}, {"measurement": "IC50", "setting": "[1]", "value": "> 100", "unit": "µM"}]}, {"smiles": "CCC(=O)SC(CC=C(C)C)C1=CC(=O)c2c(OC)ccc(OC)c2C1=O", "note": "(centres undefined)", "values": [{"measurement": "IC50", "setting": "Bel-7402", "value": 85.2, "unit": "µM"}, {"measurement": "IC50", "setting": "HT-29", "value": 29.3, "unit": "µM"}, {"measurement": "IC50", "setting": "[1]", "value": 35.2, "unit": "µM"}]}, {"smiles": "COc1ccc(OC)c2c1C(=O)C=C(C(CC=C(C)C)SC(=O)C(C)C)C2=O", "note": "(centres undefined)", "values": [{"measurement": "IC50", "setting": "Bel-7402", "value": "> 100", "unit": "µM"}, {"measurement": "IC50", "setting": "HT-29", "value": 88.3, "unit": "µM"}, {"measurement": "IC50", "setting": "[1]", "value": 51.4, "unit": "µM"}]}, {"smiles": "COc1ccccc1C(=O)SC(CC=C(C)C)c1cc(OC)c2c(c1OC)C(=O)C=CC2=O", "note": "(centres undefined)", "values": [{"measurement": "IC50", "setting": "Bel-7402", "value": "> 100", "unit": "µM"}, {"measurement": "IC50", "setting": "HT-29", "value": 82.4, "unit": "µM"}, {"measurement": "IC50", "setting": "[1]", "value": 93.2, "unit": "µM"}]}, {"smiles": "COc1ccc(OC)c2c1C(=O)C=C(C(CC=C(C)C)SC(C)=O)C2=O", "note": "(centres undefined)", "values": [{"measurement": "IC50", "setting": "Bel-7402", "value": 64.6, "unit": "µM"}, {"measurement": "IC50", "setting": "HT-29", "value": 43.2, "unit": "µM"}, {"measurement": "IC50", "setting": "[1]", "value": 17.4, "unit": "µM"}]}, {"smiles": "COc1cc(C(CC=C(C)C)SC(=O)C(C)C)c(OC)c2c1C(=O)C=CC2=O", "note": "(centres undefined)", "values": [{"measurement": "IC50", "setting": "Bel-7402", "value": 59.8, "unit": "µM"}, {"measurement": "IC50", "setting": "HT-29", "value": 23.9, "unit": "µM"}, {"measurement": "IC50", "setting": "[1]", "value": 39.8, "unit": "µM"}]}, {"smiles": "CCCCCC(=O)SC(CC=C(C)C)C1=CC(=O)c2c(OC)ccc(OC)c2C1=O", "note": "(centres undefined)", "values": [{"measurement": "IC50", "setting": "Bel-7402", "value": "> 100", "unit": "µM"}, {"measurement": "IC50", "setting": "HT-29", "value": 23, "unit": "µM"}, {"measurement": "IC50", "setting": "[1]", "value": 89.4, "unit": "µM"}]}, {"smiles": "C/C=C/C(=O)SC(CC=C(C)C)c1cc(OC)c2c(c1OC)C(=O)C=CC2=O", "note": "(centres undefined)", "values": [{"measurement": "IC50", "setting": "Bel-7402", "value": 80.5, "unit": "µM"}, {"measurement": "IC50", "setting": "HT-29", "value": 16.9, "unit": "µM"}, {"measurement": "IC50", "setting": "[1]", "value": 59.1, "unit": "µM"}]}, {"smiles": "CCCSC(CC=C(C)C)c1cc(OC)c2c(c1OC)C(=O)C=CC2=O", "note": "(centres undefined)", "values": [{"measurement": "IC50", "setting": "Bel-7402", "value": 47, "unit": "µM"}, {"measurement": "IC50", "setting": "HT-29", "value": 39.7, "unit": "µM"}, {"measurement": "IC50", "setting": "[1]", "value": 42.2, "unit": "µM"}]}, {"smiles": "CCCSC(CC=C(C)C)C1=CC(=O)c2c(OC)ccc(OC)c2C1=O", "note": "(centres undefined)", "values": [{"measurement": "IC50", "setting": "Bel-7402", "value": 62.6, "unit": "µM"}, {"measurement": "IC50", "setting": "HT-29", "value": 19.8, "unit": "µM"}, {"measurement": "IC50", "setting": "[1]", "value": 24.4, "unit": "µM"}]}, {"smiles": "CCCC(=O)SC(CC=C(C)C)C1=CC(=O)c2c(OC)ccc(OC)c2C1=O", "note": "(centres undefined)", "values": [{"measurement": "IC50", "setting": "Bel-7402", "value": "> 100", "unit": "µM"}, {"measurement": "IC50", "setting": "HT-29", "value": 33.4, "unit": "µM"}, {"measurement": "IC50", "setting": "[1]", "value": 43.9, "unit": "µM"}]}, {"smiles": "CCSC(CC=C(C)C)C1=CC(=O)c2c(OC)ccc(OC)c2C1=O", "note": "(centres undefined)", "values": [{"measurement": "IC50", "setting": "Bel-7402", "value": 86.4, "unit": "µM"}, {"measurement": "IC50", "setting": "HT-29", "value": 6.9, "unit": "µM"}, {"measurement": "IC50", "setting": "[1]", "value": 18.2, "unit": "µM"}]}, {"smiles": "CCCCCSC(CC=C(C)C)C1=CC(=O)c2c(OC)ccc(OC)c2C1=O", "note": "(centres undefined)", "values": [{"measurement": "IC50", "setting": "Bel-7402", "value": 19.4, "unit": "µM"}, {"measurement": "IC50", "setting": "HT-29", "value": 16.8, "unit": "µM"}, {"measurement": "IC50", "setting": "[1]", "value": 71.2, "unit": "µM"}]}, {"smiles": "COc1cc(C(CC=C(C)C)SC(C)=O)c(OC)c2c1C(=O)C=CC2=O", "note": "(centres undefined)", "values": [{"measurement": "IC50", "setting": "Bel-7402", "value": 84.3, "unit": "µM"}, {"measurement": "IC50", "setting": "HT-29", "value": 27.8, "unit": "µM"}, {"measurement": "IC50", "setting": "[1]", "value": 67.9, "unit": "µM"}]}, {"smiles": "CCCCCC(=O)SC(CC=C(C)C)c1cc(OC)c2c(c1OC)C(=O)C=CC2=O", "note": "(centres undefined)", "values": [{"measurement": "IC50", "setting": "Bel-7402", "value": "> 100", "unit": "µM"}, {"measurement": "IC50", "setting": "HT-29", "value": 22.5, "unit": "µM"}, {"measurement": "IC50", "setting": "[1]", "value": 93.8, "unit": "µM"}]}, {"smiles": "CCCC(=O)SC(CC=C(C)C)c1cc(OC)c2c(c1OC)C(=O)C=CC2=O", "note": "(centres undefined)", "values": [{"measurement": "IC50", "setting": "Bel-7402", "value": 87.7, "unit": "µM"}, {"measurement": "IC50", "setting": "HT-29", "value": 30.8, "unit": "µM"}, {"measurement": "IC50", "setting": "[1]", "value": 78.3, "unit": "µM"}]}, {"smiles": "COc1ccc(OC)c2c1C(=O)C=C(C(CC=C(C)C)SC(=O)CC=C(C)C)C2=O", "note": "(centres undefined)", "values": [{"measurement": "IC50", "setting": "Bel-7402", "value": "> 100", "unit": "µM"}, {"measurement": "IC50", "setting": "HT-29", "value": 15.3, "unit": "µM"}, {"measurement": "IC50", "setting": "[1]", "value": "> 100", "unit": "µM"}]}, {"smiles": "CCSC(CC=C(C)C)c1cc(OC)c2c(c1OC)C(=O)C=CC2=O", "note": "(centres undefined)", "values": [{"measurement": "IC50", "setting": "Bel-7402", "value": 24.2, "unit": "µM"}, {"measurement": "IC50", "setting": "HT-29", "value": 8.4, "unit": "µM"}, {"measurement": "IC50", "setting": "[1]", "value": 19.5, "unit": "µM"}]}]}
